# Test system: subjects with uncontrolled hypertension
# Assay: Seated automated office blood pressure (AOBP), randomized placebo-controlled dose-ranging study
# Format: in vivo, human
# Conditions: for Automated office DBP, mean CFB at Week 8: Part 1
# Protocol: A randomized, double-blinded, placebo-controlled, dose-ranging, multicenter study was conducted to evaluate the effect of orally administered Compound A HBr on blood pressure for the treatment of hypertension in male and female subjects ≥18 years of age.
# The study consists of two parts. For enrollment into Part 1 of the study, a subject's value of plasma renin activity (PRA) must be ≤1 ng/mL/h based on morning measurement. If the value of PRA >1 ng/mL/h based on morning measurement, then subjects may be eligible to enter Part 2 of the study.
# For Part 1, 163 enrolled subjects ≥18 years of age were randomized into 6 equal treatment groups (1:1:1:1:1:1) to 12.5 mg BID, 25 mg BID, 12.5 mg QD, 50 mg QD, 100 mg QD, or placebo. After a review of interim clinical data, the 2 lowest dose levels (12.5 mg QD and 12.5 mg BID) were stopped for future randomization due to a lack of consistent meaningful reduction of blood pressure, but the patients randomized to that point remained in the study through completion. Thus, after the review of interim clinical data, subjects were randomized into 4 equal treatment groups (1:1:1:1) to 25 mg BID, 50 mg QD, 100 mg QD, or placebo.
# For Part 2, 36 enrolled subjects ≥18 years of age were randomized (5:1) to either 100 mg QD Compound A HBr or placebo such that the Compound A HBr treatment group consisted of approximately 30 subjects and the placebo treatment group will consist of approximately 6 subjects.
# Subjects orally administered the assigned study drug (Compound A HBr or placebo) according to the assigned dosing regimen for 8 weeks beginning on Study Day 1. All subjects in Part 1 (regardless of dosing group) received BID dosing to preserve the integrity of the blind; active drug is administered as the morning dose for all QD dose groups. Subjects returned to the research facility or were seen by the clinical investigator or approved home health care professional at the end of Study Weeks 1, 2, 3, 4, 5, 6, 7, and 8 (±2 days) for protocol-defined efficacy and safety assessments and procedures, assessment of adverse events (AEs), and confirmation of compliance with study drug usage. Subjects also completed a telephone visit and blood pressure (BP) check at home approximately 3 days post last dose of study drug. Subjects attended up to 14 full clinic visits, including a pre-Screening visit, a Screening/start of Placebo Run-in visit, a second visit during Placebo Run-in, a clinic visit to initiate the ABPM procedure, a Randomization visit, 8 weekly visits during double-blind treatment, and an end-of-study visit scheduled 4 weeks after the last study treatment for final efficacy and safety assessments.
# An automated oscillometric sphygmomanometer device was used to measure the subjects' systolic and diastolic blood pressure in office after approximately 5 minutes of rest in the seated position.
# The primary endpoint is the change in office-measured (mean of last 2 of 5 unattended measurements using an automated oscillometric sphygmomanometer device after approximately 5 minutes of rest in the seated position) systolic blood pressure (SBP) from baseline to the end of Study Week 8.
# Secondary endpoints of this study were: • (a) Change in 24-hour ambulatory blood pressure monitoring (ABPM) parameters (systolic and diastolic) from baseline to the end of Study Week 7. • (b) Change in office-measured SBP from baseline to the end of Study Weeks 1, 2, 3, 4, 5, 6, and 7. • (c) Change in office-measured diastolic blood pressure (DBP) from baseline to the end of Study Weeks 1, 2, 3, 4, 5, 6, 7, and 8. • (d) Proportion of subjects who achieve office-measured BP of ≤130/80 mm Hg by the end of Study Week 8.
# For AOBP measurements and any other clinical or laboratory variable for which there are replicate evaluations at the screening and baseline visits, baseline is defined as the mean of the last two non-missing values prior to first administration of the IMP for the double-blinded treatment period.
smiles,measurement,setting,value
CC(=O)N[C@H]1CC[C@H](NC(=O)CN2CCN(c3nncc(-c4ccc(C)cc4)n3)CC2)CC1 [Compound A HBr],"Placebo-corrected mean change in AOBP systolic BP, Full-analysis set","100 mg, Part-1 and Part-2 (interim) combined, N=58 active",−9.9 mmHg
same,"Automated office DBP, mean CFB at Week 8","12.5 mg BID, BMI <25 kg/m^2",6.00 mmHg
same,"Automated office DBP, mean CFB at Week 8","50 mg QD, Seated SBP Tertile Low",−2.42 mmHg
same,"Automated office DBP, mean CFB at Week 8","100 mg QD, BMI 25-30 kg/m^2",−6.50 mmHg
same,"Automated office DBP, mean CFB at Week 8","100 mg QD, Seated SBP Tertile Middle",−6.17 mmHg
same,"Automated office DBP, mean CFB at Week 8","100 mg QD, thiazide diuretic use at baseline No",−4.00 mmHg
same,Blood pressure reduction in individuals receiving a thiazide diuretic as background medication,observed across dosing cohorts,particularly effective
same,Blood pressure reduction in individuals with BMI greater than 30,observed across dosing cohorts,particularly effective
same,Subjects with change in BPsys >−15 mmHg,"pooled 50 mg QD, 100 mg QD, 12.5 mg BID, 25 mg BID cohorts (N=103), week 8",41%
